Laboratory results: US9186360B2, “Treatment of respiratory disorders using TRPA1 antagonists” (GLENMARK PHARMACEUTICALS S.A., priority 2011, dated 2015)

Columns and labels:
[1] = tested on: ovalbumin sensitized Dunkin Hartley guinea pigs; assay: Ovalbumin induced asthma model in guinea pigs, intra-tracheal dosing; assay type: in vivo, guinea pig; settings: for Percent inhibition of eosinophils: BAL 48 hours after challenge; for Airway conductance sGAW (AUC): 4 hours before ovalbumin challenge
Method: Healthy male Dunkin Hartley guinea pigs weighing between 300-400 gm were sensitized on day 0 with (5 mg) and on day 2 with (10 mg) of ovalbumin (Ova) and 10 mg of aluminum hydroxide gel given intra peritoneal (i.p.). Guinea pigs were challenged with 0.3% aerosolized ovalbumin on Day 21 following sensitization.
Actively sensitized male guinea pigs with free access to water, were fasted overnight, and used for the studies. Animals were assigned to one of the following groups during each experiment as per Table 2 below.
Guinea pigs were dosed intra-tracheally with Compound 52 or vehicle 4 hours before exposure to aerosolized ovalbumin challenge. The control group of animals received vehicle (Lactose powder—2 mg/animal, i.t.) only.
Broncho Alveolar Lavage (BAL) was performed at 48 hours after challenge with ovalbumin. Animals were anesthetized with an overdose of urethane, trachea was exposed and BAL was performed 5 times using 5 mL PBS. All aspirates of BAL were pooled and total number of cells determined using a hemocytometer. The BAL was centrifuged, and the cell pellet re-suspended in 50 μL guinea pig serum and used for preparation of smears. Slides were stained with Giemsa stain and a differential cell count of 500 cells based on standard morphology was performed manually.
The total number of eosinophils in each BAL sample was calculated using the formula:
[formula] Percent inhibition of eosinophils was calculated using the following formula: […]
The results for the bronchoconstriction part were calculated as percent (%) change in sGaw from saline base-line readings with saline taken just 1 minute before the antigen challenge and reported as peak change (mean±S.E.M.) for every 5 minutes for a total duration of 30 min after OA challenge. Area under the curve (AUC) was determined for each animal using GraphPad Prism. The percent (%) increase in AUC in the treated group relative to the vehicle group was calculated. Data was statistically analyzed using ANOVA and Dunnett's post hoc test.

[2] = tested on: ovalbumin sensitized Brown Norway rats; assay: Ovalbumin challenge in Brown Norway rats, intra-tracheal dosing (Example 3); assay type: in vivo, rat; settings: i.t.
Method: Male Brown Norway rats were sensitized subcutaneously on day 0, 14 and 21 with 0.5 ml solution containing 20 μg/ml ovalbumin and 40 mg/ml aluminum hydroxide. Simultaneously animals were injected intraperitoneally (i.p.) with 0.25 ml of B. pertussis vaccine/rat containing 4×10^8 heat killed bacilli/ml. Rats were challenged with 1% aerosolized ovalbumin on Day 28 following sensitization.
Test compounds were triturated and volume was made up with Normal Saline (0.9% NaCl). Animals were administered Compound 52 intra-tracheally 1 hour before ovalbumin challenge. Animals were sacrificed 48 hours after ovalbumin challenge and BAL was performed as mentioned in Example 2. The pooled BAL was used to determined total number of cells using a hemocytometer. Further, cell differential study was performed according to Example 2.
The total number of eosinophils in each BAL sample was calculated using the formula: […]
Percent inhibition of eosinophils was calculated using the following formula: […]
The data was statistically evaluated by ANOVA followed by Dunnett's multiple comparisons test.

[3] = Pharmacokinetics in guinea pig upon intra-tracheal administration; assay type: in vivo; settings: 500 mcg i.t.; for AUC0-24 / Cmax: mean ± SD (N = 3); for Tmax: guinea pig, other: intra-tracheal, 500 ug
Method: Guinea pigs were dosed intra-tracheally with Compound 52 with lactose as a vehicle. At various time points, animals were sacrificed with an overdose of urethane, trachea was exposed and BAL was performed 5 times using 5 mL PBS. Lung tissue was collected and kept at −70° C. until analysis. The BAL was centrifuged, and the cell pellet was collected and kept at −70° C. until analysis.

Cn1c(=O)c2c(CC(=O)Nc3nc(-c4ccc(F)c(C(F)(F)F)c4F)cs3)csc2n(C)c1=O [Compound 52]
Percent inhibition of eosinophils ([1]; dose 125 μg/animal i.t.): 61% | Percent inhibition of eosinophils ([1]; dose 250 μg/animal i.t.): 87% | Percent inhibition of eosinophils ([1]; dose 500 μg/animal i.t.): 68% | Airway conductance sGAW (AUC) ([1]; dose 25 (table μg/kg; text μg/animal) i.t.): 1399 | Percent improvement in airway conductance ([1]; dose 25 i.t.): 0% | Percent inhibition of eosinophils ([1]; dose 25 i.t.): 0% | Percent improvement in airway conductance ([1]; dose 50 i.t.): 7% | Airway conductance sGAW (AUC) ([1]; dose 50 i.t.): 1592 | Percent inhibition of eosinophils ([1]; dose 50 i.t.): 0% | Percent improvement in airway conductance ([1]; dose 125 i.t.): 39% | Airway conductance sGAW (AUC) ([1]; dose 125 i.t.): 1943 | Percent improvement in airway conductance ([1]; dose 250 i.t.): 45% | Airway conductance sGAW (AUC) ([1]; dose 250 i.t.): 2004 | Percent improvement in airway conductance ([1]; dose 500 i.t.): 43% | Airway conductance sGAW (AUC) ([1]; dose 500 i.t.): 1987 | inhibition of eosinophils ([1]; dose not stated for this figure): 75% | ED50, inhibition of pulmonary eosinophilia [2]: 213 µg | AUC0-24 ([3]; Cell Pellet (BAL)): 70390 ± 12071 ng · h/ml or g | Cmax ([3]; Cell Pellet (BAL)): 6726 ± 2049 ng/ml or g | AUC0-24 ([3]; Lung Tissue): 103786 ± 28285 ng · h/ml or g | Cmax ([3]; Lung Tissue): 4989 ± 2548 ng/ml or g | Tmax ([3]; Cell Pellet (BAL)): 0.25 h | Tmax ([3]; Lung Tissue): 8 h
